Values quoted from earlier work in article PMC8260592 (Scientific Reports, 2021).
≈ marks a conversion by molar mass, not a printed value. Where two headings read alike, the source gives them in different places.

Columns and labels:
[1] = system: AChE; settings: cited from earlier work
[2] = system: MAO-B; settings: ref 22; cited from earlier work

COc1cc(C[C@H](C)[C@H](C)Cc2ccc3c(c2)OCO3)ccc1O [macelignan]
IC50 ([1]; ref 22): 4.16 µM
IC50 [2]: 7.42 µM

COc1cc2oc(-c3ccc(O)cc3)cc(=O)c2c(O)c1[C@@H]1O[C@H](CO)[C@@H](O)[C@H](O)[C@H]1O [swertisin, isovitexin-7-O-methyl ether]
IC50 ([1]; converted from µg/mL): 71.9 µM
IC50 AChE ([1]; ref 49): 32.09 µg/mL (≈ 71.9 µM)

O=C(/C=C/c1ccc(O)cc1)OC[C@H]1O[C@@H](Oc2c(-c3ccc(O)cc3)oc3cc(O)cc(O)c3c2=O)[C@H](O)[C@@H](O)[C@@H]1O [tiliroside]
IC50 ([1]; ref 50): 23.5 µM

Oc1ccc([C@H]2c3c(O)cc(O)cc3[C@H]3c4c(cc(O)cc4[C@@H]2c2cc(/C=C/c4cc(O)cc5c4[C@H](c4cc(O)cc(O)c4)[C@@H](c4ccc(O)cc4)O5)ccc2O)O[C@@H]3c2ccc(O)cc2)cc1 [vitisin A]
IC50 ([1]; ref 56): 1.04 µM

COc1c(O)cc2oc3cc(O)c(CC=C(C)C)c(O)c3c(=O)c2c1CC=C(C)C [α-mangostin]
IC50 ([1]; ref 53): 2.48 µM
IC50 ([1]; ref 54): 6.3 µM

heyneanol A
IC50 ([1]; ref 56): 1.66 µM
